Biological target: USP7 (Homo sapiens (Human), UniProt Q93009)
Test: USP7 inhibition assay with Ub-Rho 110 substrate (fluorescence progress curves)
Format: biochemical
Settings: for inhibition at 100 µM / % inhibition @100 μM: 100 μM compound, 1 nM USP7, 200 nM Ub-Rho 110, 3% DMSO, triplicate; for IC50: 11 compound concentrations, two-fold serial dilutions
Experimental: Each assay was measured in triplicate. […] All reactions contained a final concentration of 3% DMSO. […] The percent inhibition was calculated using Equation (1).
The assay design was identical to as described above. The percent inhibition was calculated using Equation 1 and fit to Equation 2 by use of the Enzyme Kinetics Module of Sigma Plot (v13:Systat Software Inc.), to determine the IC50 value.

Sequence of USP7 (Q93009 whole entry): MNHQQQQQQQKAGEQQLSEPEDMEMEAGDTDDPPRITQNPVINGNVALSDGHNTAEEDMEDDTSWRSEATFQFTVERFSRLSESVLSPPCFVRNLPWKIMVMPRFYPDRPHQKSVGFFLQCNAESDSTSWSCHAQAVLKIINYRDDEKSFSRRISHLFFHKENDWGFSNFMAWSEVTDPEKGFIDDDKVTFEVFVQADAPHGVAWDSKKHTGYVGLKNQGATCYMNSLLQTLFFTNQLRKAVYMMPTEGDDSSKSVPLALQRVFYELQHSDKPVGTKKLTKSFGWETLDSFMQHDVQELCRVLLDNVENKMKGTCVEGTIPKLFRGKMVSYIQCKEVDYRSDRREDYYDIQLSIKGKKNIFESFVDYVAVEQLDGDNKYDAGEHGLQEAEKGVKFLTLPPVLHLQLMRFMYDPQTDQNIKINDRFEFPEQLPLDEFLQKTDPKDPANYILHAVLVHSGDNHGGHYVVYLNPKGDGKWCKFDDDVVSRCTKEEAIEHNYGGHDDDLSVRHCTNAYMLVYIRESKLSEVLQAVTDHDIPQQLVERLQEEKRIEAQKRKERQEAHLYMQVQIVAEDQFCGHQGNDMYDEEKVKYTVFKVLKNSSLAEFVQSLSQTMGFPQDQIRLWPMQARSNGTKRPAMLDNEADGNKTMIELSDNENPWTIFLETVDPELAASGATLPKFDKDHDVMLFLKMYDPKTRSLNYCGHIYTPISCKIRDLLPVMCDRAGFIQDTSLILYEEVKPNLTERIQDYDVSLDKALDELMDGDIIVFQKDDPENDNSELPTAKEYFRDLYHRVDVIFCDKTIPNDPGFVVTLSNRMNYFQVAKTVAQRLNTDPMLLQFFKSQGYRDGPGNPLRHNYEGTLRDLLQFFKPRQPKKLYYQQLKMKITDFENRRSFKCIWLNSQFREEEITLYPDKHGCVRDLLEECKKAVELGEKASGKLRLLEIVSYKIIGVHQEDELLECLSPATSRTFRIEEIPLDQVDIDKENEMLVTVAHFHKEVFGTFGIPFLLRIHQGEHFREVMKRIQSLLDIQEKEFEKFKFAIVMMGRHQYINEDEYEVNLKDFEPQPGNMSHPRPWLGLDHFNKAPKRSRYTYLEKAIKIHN

| SMILES | inhibition at 100 µM [%] | IC50 (1 nM USP7, 200 nM Ub-Rho 110) [µM] | % inhibition @100 μM [%] | inhibition at 150 µM (tested at 150 μM compound, 1 nM USP7, 200 nM Ub-Rho 110) [%] |
| --- | --- | --- | --- | --- |
| N#CC1=C(N)Oc2n[nH]c(-c3cccs3)c2C1c1ccc([N+](=O)[O-])cc1 (racemic) [Compound 6g, 6-Amino-4-(4-nitrophenyl)-3-(thiophen-2-yl)-2,4-dihydropyrano[2,3-c]pyrazole-5-carbonitrile] | 57 ± 2 | 33 ± 5 |  |  |
| C#CCOc1ccc(C2C(C#N)=C(N)Oc3n[nH]c(-c4cccs4)c32)cc1Br (racemic) [Compound 6n, 6-Amino-4-(3-bromo-4-(prop-2-yn-1-yloxy)phenyl)-3-(thiophen-2-yl)-2,4-dihydropyrano[2,3-c]pyrazole-5-carbonitrile] | 84 ± 2 | 4.5 ± 0.6 |  |  |
| N#CC1=C(N)Oc2n[nH]c(-c3cccs3)c2C1c1ccc2c(c1)CCO2 (racemic) [Compound 6o, 6-Amino-4-(2,3-dihydrobenzofuran-5-yl)-3-(thiophen-2-yl)-2,4-dihydropyrano [2,3-c]pyrazole-5-carbonitrile] | 45 ± 9 | 13 ± 3 |  |  |
| N#CC1=C(N)Oc2n[nH]c(-c3cccs3)c2C1c1ccc(O)c(C(F)(F)F)c1 (racemic) [Compound 6q, 6-Amino-4-(4-hydroxy-3-(trifluoromethyl)phenyl)-3-(thiophen-2-yl)-2,4-dihydropyrano[2,3-c]pyrazole-5-carbonitrile] | 92 ± 2 | 11 ± 0.7 |  |  |
| COc1cc(C)c(C2C(C#N)=C(N)Oc3n[nH]c(-c4cccs4)c32)cc1C(C)C (racemic) [Compound 6r, 6-Amino-4-(5-isopropyl-4-methoxy-2-methylphenyl)-3-(thiophen-2-yl)-2,4-dihydropyrano[2,3-c]pyrazole-5-carbonitrile] | 95 ± 4 | 1.4 ± 0.2 |  |  |
| COc1ccc(C2C(C#N)=C(N)Oc3n[nH]c(-c4cccs4)c32)cc1F (racemic) [Compound 6s, 6-Amino-4-(3-fluoro-4-methoxyphenyl)-3-(thiophen-2-yl)-2,4-dihydropyrano [2,3-c]pyrazole-5-carbonitrile] | 32 ± 13 | 7 ± 2 |  |  |
| COc1ccc(C2C(C#N)=C(N)Oc3n[nH]c(-c4cccs4)c32)cc1Cl (racemic) [Compound 6t, 6-Amino-4-(3-chloro-4-methoxyphenyl)-3-(thiophen-2-yl)-2,4-dihydropyrano [2,3-c]pyrazole-5-carbonitrile] | 55 ± 3 | 7 ± 2 |  |  |
| COc1ccc(C2C(C#N)=C(N)Oc3n[nH]c(-c4cccs4)c32)cc1I (racemic) [Compound 6u, 6-Amino-4-(3-iodo-4-methoxyphenyl)-3-(thiophen-2-yl)-2,4-dihydropyrano [2,3-c]pyrazole-5-carbonitrile] | 85 ± 1 | 1.8 ± 0.1 |  |  |
| N#CC1=C(N)Oc2n[nH]c(-c3cccs3)c2C1c1ccc(O)c(C(F)(F)F)c1 (racemic) [Compound 6v, 6-Amino-4-(4-hydroxy-3-(trifluoromethyl)phenyl)-3-(thiophen-2-yl)-2,4-dihydropyrano[2,3-c]pyrazole-5-carbonitrile] |  | 0.75 ± 0.06 | 93 ± 4 |  |
| COc1ccc(C2C(C#N)=C(N)Oc3n[nH]c(-c4ccsc4)c32)cc1Br (racemic) [Compound 7a, 6-Amino-4-(3-bromo-4-methoxyphenyl)-3-(thiophen-3-yl)-2,4-dihydropyrano [2,3-c]pyrazole-5-carbonitrile] | 72 ± 4 | 8.1 ± 1 |  |  |
| COc1ccc(C2C(C#N)=C(N)Oc3n[nH]c(-c4ccsc4)c32)cc1I (racemic) [Compound 7b, 6-Amino-4-(3-iodo-4-methoxyphenyl)-3-(thiophen-3-yl)-2,4-dihydropyrano [2,3-c]pyrazole-5-carbonitrile] | 71 ± 3 | 5.6 ± 0.7 |  |  |
| COc1ccc(C2C(C#N)=C(N)Oc3n[nH]c(-c4ccccn4)c32)cc1Br (racemic) [Compound 7c, 6-Amino-4-(3-bromo-4-methoxyphenyl)-3-(pyridin-2-yl)-2,4-dihydropyrano [2,3-c]pyrazole-5-carbonitrile] | 85 ± 2 | 7.9 ± 0.4 |  |  |
| COc1ccc(C2C(C#N)=C(N)Oc3n[nH]c(-c4ccccn4)c32)cc1I (racemic) [Compound 7d, 6-Amino-4-(3-iodo-4-methoxyphenyl)-3-(pyridin-2-yl)-2,4-dihydropyrano [2,3-c]pyrazole-5-carbonitrile] |  | 4.4 |  | 89 ± 2 |
| COc1ccc(C2C(C#N)=C(N)Oc3n[nH]c(-c4cccnc4)c32)cc1Br (racemic) [Compound 7e, 6-Amino-4-(3-bromo-4-methoxyphenyl)-3-(pyridin-3-yl)-2,4-dihydropyrano [2,3-c]pyrazole-5-carbonitrile] | 82 ± 9 | 24 ± 5 |  |  |
| COc1ccc(C2C(C#N)=C(N)Oc3n[nH]c(-c4cccnc4)c32)cc1I (racemic) [Compound 7f, 6-Amino-4-(3-iodo-4-methoxyphenyl)-3-(pyridin-3-yl)-2,4-dihydropyrano [2,3-c]pyrazole-5-carbonitrile] | 83 ± 3 | 7.7 ± 0.9 |  |  |
| COc1ccc(C2C(C#N)=C(N)Oc3n[nH]c(-c4ccc(Cl)cc4)c32)cc1Br (racemic) [Compound 7h, 6-Amino-4-(3-bromo-4-methoxyphenyl)-3-(4-chlorophenyl)-2,4-dihydropyrano [2,3-c]pyrazole-5-carbonitrile] | 66 ± 3 | 7.5 ± 0.9 |  |  |

| SMILES | inhibition at 100 µM [%] | IC50 (1 nM USP7, 200 nM Ub-Rho 110) [µM] | % inhibition @100 μM [%] | inhibition at 150 µM (tested at 150 μM compound, 1 nM USP7, 200 nM Ub-Rho 110) [%] |
| --- | --- | --- | --- | --- |
| COc1ccc(C2C(C#N)=C(N)Oc3n[nH]c(-c4ccn(C)c4)c32)cc1Br (racemic) [Compound 7l, 6-Amino-4-(3-bromo-4-methoxyphenyl)-3-(1-methyl-1H-pyrrol-3-yl)-2,4-dihydropyrano[2,3-c]pyrazole-5-carbonitrile] | 88 ± 0.09 | 1.91 ± 0.8 |  |  |
| COc1ccc(C2C(C#N)=C(N)Oc3n[nH]c(-c4ccn(C)c4)c32)cc1I (racemic) [Compound 7m, 6-Amino-4-(3-iodo-4-methoxyphenyl)-3-(1-methyl-1H-pyrrol-3-yl)-2,4-dihydropyrano[2,3-c]pyrazole-5-carbonitrile] | 89 ± 1 | 1.31 ± 0.06 |  |  |
| COc1ccc(C2C(C#N)=C(N)Oc3n[nH]c(-c4cccs4)c32)cc1Br (centres unmarked) [Compound 6a, 6-Amino-4-(3-bromo-4-methoxyphenyl)-3-(thiophen-2-yl)-2,4-dihydropyrano [2,3-c]pyrazole-5-carbonitrile] | 72 ± 3 |  |  |  |
| COc1ccc(C2C(C#N)=C(N)Oc3n[nH]c(-c4cccs4)c32)cc1 (centres unmarked) [Compound 6b, 6-Amino-4-(4-methoxyphenyl)-3-(thiophen-2-yl)-2,4-dihydropyrano [2,3-c]pyrazole-5-carbonitrile] | 10 ± 7 |  |  |  |
| N#CC1=C(N)Oc2n[nH]c(-c3cccs3)c2C1c1cccc(Br)c1 (centres unmarked) [Compound 6c, 6-Amino-4-(3-bromophenyl)-3-(thiophen-2-yl)-2,4-dihydropyrano[2,3-c]pyrazole-5-carbonitrile] | 0 |  |  |  |
| N#CC1=C(N)Oc2n[nH]c(-c3cccs3)c2C1c1ccc(O)cc1 (centres unmarked) [Compound 6d, 6-Amino-4-(4-hydroxyphenyl)-3-(thiophen-2-yl)-2,4-dihydropyrano [2,3-c]pyrazole-5-carbonitrile] | 0 |  |  |  |
| Cc1ccc(C2C(C#N)=C(N)Oc3n[nH]c(-c4cccs4)c32)cc1 (centres unmarked) [Compound 6e, 6-Amino-3-(thiophen-2-yl)-4-(p-tolyl)-2,4-dihydropyrano [2,3-c]pyrazole-5-carbonitrile] | 0 |  |  |  |
| N#CC1=C(N)Oc2n[nH]c(-c3cccs3)c2C1c1ccc(Cl)cc1 (centres unmarked) [Compound 6f, 6-Amino-4-(4-chlorophenyl)-3-(thiophen-2-yl)-2,4-dihydropyrano[2,3-c]pyrazole-5-carbonitrile] | 31 ± 6 |  |  |  |
| N#CC1=C(N)Oc2n[nH]c(-c3cccs3)c2C1c1ccc2c(c1)-c1ccccc1C2 (centres unmarked) [Compound 6h, 6-amino-4-(9H-fluoren-3-yl)-3-(thiophen-2-yl)-2,4-dihydropyrano [2,3-c]pyrazole-5-carbonitrile] | 38 ± 6 |  |  |  |
| C=CCN1CCc2ccc(C3C(C#N)=C(N)Oc4n[nH]c(-c5cccs5)c43)cc21 (centres unmarked) [Compound 6i, 4-(1-Allylindolin-6-yl)-6-amino-3-(thiophen-2-yl)-2,4-dihydropyrano[2,3-c]pyrazole-5-carbonitrile] | 63 ± 1 |  |  |  |
| N#CC1=C(N)Oc2n[nH]c(-c3cccs3)c2C1c1cc(Br)c(OCc2ccccc2)c(Br)c1 (centres unmarked) [Compound 6l, 6-amino-4-(4-(benzyloxy)-3,5-dibromophenyl)-3-(thiophen-2-yl)-2,4-dihydropyrano[2,3-c]pyrazole-5-carbonitrile] | 26 ± 3 |  |  |  |
| CCCOc1ccc(C2C(C#N)=C(N)Oc3n[nH]c(-c4cccs4)c32)cc1Br (centres unmarked) [Compound 6m, 6-Amino-4-(3-bromo-4-propoxyphenyl)-3-(thiophen-2-yl)-2,4-dihydropyrano [2,3-c]pyrazole-5-carbonitrile] | 32 ± 5 |  |  |  |
| N#CC1=C(N)Oc2n[nH]c(-c3cccs3)c2C1c1ccc(N=[N+]=[N-])c(I)c1 (centres unmarked) [Compound 6p, 6-Amino-4-(4-azido-3-iodophenyl)-3-(thiophen-2-yl)-2,4-dihydropyrano[2,3-c]pyrazole-5-carbonitrile] | 62 ± 20 |  |  |  |
| Cc1ccc(C2C(C#N)=C(N)Oc3n[nH]c(-c4ccc(Cl)cc4)c32)cc1C (centres unmarked) [Compound 7g, 6-Amino-3-(4-chlorophenyl)-4-(3,4-dimethylphenyl)-2,4-dihydropyrano[2,3-c]pyrazole-5-carbonitrile] | 34 ± 6 |  |  |  |
| COc1ccc(C2C(C#N)=C(N)Oc3n[nH]c(-c4ccc(Cl)cc4)c32)cc1I (centres unmarked) [Compound 7i, 6-Amino-3-(4-chlorophenyl)-4-(3-iodo-4-methoxyphenyl)-2,4-dihydropyrano [2,3-c]pyrazole-5-carbonitrilem] |  | 15 ± 2 | 69 ± 3 |  |

— patent US10980781B2, “6-amino-2,4-dihydropyrano [2,3-c] pyrazoles and methods of use” (Purdue Research Foundation, priority 2017, dated 2021)
